Test results from patent US9382254B2, “Compounds and pharmaceutical compositions thereof for the treatment of cystic fibrosis” (Galapagos NV, priority 2013, dated 2016).

Experiments:
Format in all cases: cell-based
[1] = target: T1, CFTR ΔF508 mutant (Homo sapiens, UniProt P13569, DEL508-508); assay: YFP-halide influx assay for the CFTR-ΔF508 mutation (384 well, FDSS/μCell); details: CFBE41o- cells, CFTR-ΔF508, 1×D-PBS, fluorescence after 36 seconds
T1 construct: expressed in transfected cells; host or cells: CFBE41o- (adenoviral transduction)
Method in brief: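 Potentiator read-out as 1−F/F0, F taken 36 s after iodide addition, EC50 fitted against compound concentration. Cells: CFBE41o- expressing ΔF508 CFTR plus halide-sensitive YFP via adenovirus, rescued by 27 °C for 24 h or 24 h modulator at 37 °C.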

[2] = target: T1, CFTR ΔF508 mutant; assay: YFP-halide influx assay for the CFTR-ΔF508 mutation, PBS buffer (96 well); details: CFBE41o- cells, forskolin 10.67 μM
From the text: The YFP halide influx assay measures the functionality of the cystic fibrosis Transmembrane Conductance regulator (CFTR) channels in the cystic fibrosis bronchial epithelium cell line CFBE41o-. The assay is used to evaluate the capacity of compounds to increase the open probability of existing CFTR channels in the membrane. It makes use of the observation that the yellow fluorescent protein (YFP) variant YFP H148Q, I152L has its fluorescence substantially quenched by halide ions like Cl^− and I^−. (Galietta, Haggie, & Verkman, 2001) (Nagai, et al., 2002)
For this purpose, CFBE41o-cells are seeded in 96 well plates (6000 CFBE cells/well). One day after seeding, the CFBE cells are transduced with adenoviral vectors that direct the expression of the CFTR ΔF508 mutant and of the YFP reporter. Cells are incubated at 27° C., 5% CO2 for 24 hours so as to allow for the proper folding and migration to the membrane of the CFTR channel or treated with a CFTR modulator during 24 hours at 37° C.
The I^− induced quenching of fluorescence is recorded immediately after injection of I^− for 7 seconds. The capacity of a compound to increase the channel opening is directly correlated with the decrease in fluorescence, and is expressed as (1-(fluorescence after 7 seconds (F)/fluorescence before injection (F0))) and an EC50 can be derived from a (1-F/F0) vs compound concentration plot.

[3] = target: T2, CFTR G551D mutant (Homo sapiens, UniProt P13569, G551D); assay: YFP-halide influx assay for the CFTR-G551D mutation; details: HEK293 cells, forskolin 10.67 μM
T2 construct: expressed in transfected cells; host or cells: HEK293 (reverse transfection with plasmid)
Method in brief: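 Channel opening potentiation measured as 1−F/F0, where F is YFP fluorescence 7 s after iodide injection and F0 before; EC50 taken from concentration plot. Cells: HEK293 transiently expressing CFTR G551D plus halide-sensitive YFP (H148Q, I152L, F47L), 24 h at 37 °C, 5% CO2.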

T2 sequence (P13569 whole entry G551D): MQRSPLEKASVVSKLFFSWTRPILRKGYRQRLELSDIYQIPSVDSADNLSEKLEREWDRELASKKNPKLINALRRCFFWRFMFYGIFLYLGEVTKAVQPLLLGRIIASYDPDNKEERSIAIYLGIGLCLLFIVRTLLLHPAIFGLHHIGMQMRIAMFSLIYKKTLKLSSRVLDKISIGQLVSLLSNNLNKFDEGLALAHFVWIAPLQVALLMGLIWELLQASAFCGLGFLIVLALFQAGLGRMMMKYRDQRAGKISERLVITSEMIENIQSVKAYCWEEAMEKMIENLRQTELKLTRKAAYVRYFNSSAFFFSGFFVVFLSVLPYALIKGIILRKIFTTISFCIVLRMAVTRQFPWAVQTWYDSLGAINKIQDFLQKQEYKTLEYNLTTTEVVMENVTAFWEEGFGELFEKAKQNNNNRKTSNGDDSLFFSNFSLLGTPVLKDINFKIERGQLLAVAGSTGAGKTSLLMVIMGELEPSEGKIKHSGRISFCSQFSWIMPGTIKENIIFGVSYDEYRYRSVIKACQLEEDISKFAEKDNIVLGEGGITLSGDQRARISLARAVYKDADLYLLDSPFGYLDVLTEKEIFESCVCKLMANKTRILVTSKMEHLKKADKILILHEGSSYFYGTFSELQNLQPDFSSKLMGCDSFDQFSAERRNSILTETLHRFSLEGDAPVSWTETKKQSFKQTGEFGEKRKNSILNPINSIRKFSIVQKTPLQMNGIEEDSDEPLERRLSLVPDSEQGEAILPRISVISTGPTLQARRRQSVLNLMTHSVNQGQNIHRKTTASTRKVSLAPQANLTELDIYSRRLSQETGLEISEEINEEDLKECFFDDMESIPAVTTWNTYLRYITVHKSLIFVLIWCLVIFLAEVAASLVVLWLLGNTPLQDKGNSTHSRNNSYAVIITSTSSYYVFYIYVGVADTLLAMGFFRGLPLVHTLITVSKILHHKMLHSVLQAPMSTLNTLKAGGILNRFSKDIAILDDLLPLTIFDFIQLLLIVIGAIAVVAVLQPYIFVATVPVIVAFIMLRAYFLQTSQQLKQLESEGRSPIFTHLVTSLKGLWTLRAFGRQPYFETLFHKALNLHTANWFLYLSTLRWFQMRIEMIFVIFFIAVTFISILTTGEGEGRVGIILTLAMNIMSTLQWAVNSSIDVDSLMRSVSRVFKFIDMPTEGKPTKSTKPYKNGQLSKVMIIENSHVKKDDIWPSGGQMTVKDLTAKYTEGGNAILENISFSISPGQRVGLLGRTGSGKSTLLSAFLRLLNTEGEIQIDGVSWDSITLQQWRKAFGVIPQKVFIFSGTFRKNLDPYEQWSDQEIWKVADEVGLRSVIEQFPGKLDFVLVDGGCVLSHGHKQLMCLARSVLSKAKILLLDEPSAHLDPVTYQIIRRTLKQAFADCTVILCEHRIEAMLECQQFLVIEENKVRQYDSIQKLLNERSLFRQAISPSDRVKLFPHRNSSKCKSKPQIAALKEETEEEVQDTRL
T1 sequence (P13569 with tags, fused parts or gaps DEL508-508): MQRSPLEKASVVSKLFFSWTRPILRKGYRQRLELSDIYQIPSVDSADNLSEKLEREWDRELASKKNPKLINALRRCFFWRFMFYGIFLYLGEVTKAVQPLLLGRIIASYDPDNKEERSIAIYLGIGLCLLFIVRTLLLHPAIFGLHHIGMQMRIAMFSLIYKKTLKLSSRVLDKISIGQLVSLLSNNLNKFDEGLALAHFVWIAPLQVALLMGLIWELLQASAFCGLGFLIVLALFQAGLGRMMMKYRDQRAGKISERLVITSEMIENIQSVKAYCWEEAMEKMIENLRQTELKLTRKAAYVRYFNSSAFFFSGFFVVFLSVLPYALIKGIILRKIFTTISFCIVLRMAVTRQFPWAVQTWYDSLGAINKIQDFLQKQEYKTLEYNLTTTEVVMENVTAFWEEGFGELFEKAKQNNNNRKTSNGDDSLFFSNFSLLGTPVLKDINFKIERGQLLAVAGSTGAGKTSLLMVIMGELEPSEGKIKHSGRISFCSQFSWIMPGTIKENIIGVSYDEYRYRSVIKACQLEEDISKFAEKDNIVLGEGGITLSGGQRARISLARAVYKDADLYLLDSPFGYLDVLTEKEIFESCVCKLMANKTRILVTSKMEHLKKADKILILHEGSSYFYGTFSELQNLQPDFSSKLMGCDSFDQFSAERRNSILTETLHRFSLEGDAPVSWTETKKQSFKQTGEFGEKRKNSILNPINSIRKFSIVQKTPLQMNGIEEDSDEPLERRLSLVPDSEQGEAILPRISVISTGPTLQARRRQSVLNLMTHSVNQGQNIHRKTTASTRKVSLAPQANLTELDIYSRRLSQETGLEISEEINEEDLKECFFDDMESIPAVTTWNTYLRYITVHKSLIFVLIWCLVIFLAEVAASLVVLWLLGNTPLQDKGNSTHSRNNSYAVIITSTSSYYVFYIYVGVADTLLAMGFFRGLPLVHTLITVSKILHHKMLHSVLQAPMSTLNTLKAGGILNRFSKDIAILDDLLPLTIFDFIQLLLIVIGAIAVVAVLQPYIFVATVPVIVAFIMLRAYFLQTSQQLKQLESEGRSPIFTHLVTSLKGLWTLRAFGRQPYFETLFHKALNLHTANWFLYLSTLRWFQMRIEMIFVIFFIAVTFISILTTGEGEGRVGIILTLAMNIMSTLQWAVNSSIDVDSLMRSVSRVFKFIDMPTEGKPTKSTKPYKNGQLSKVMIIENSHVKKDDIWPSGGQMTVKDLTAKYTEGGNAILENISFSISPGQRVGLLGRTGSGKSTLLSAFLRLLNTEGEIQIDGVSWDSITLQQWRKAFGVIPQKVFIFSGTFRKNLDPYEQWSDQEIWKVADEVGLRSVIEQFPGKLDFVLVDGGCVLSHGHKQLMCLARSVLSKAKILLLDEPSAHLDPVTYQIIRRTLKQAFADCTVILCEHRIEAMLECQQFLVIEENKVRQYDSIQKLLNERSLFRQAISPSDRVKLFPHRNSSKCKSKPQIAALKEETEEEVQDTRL

NC(=O)c1cc(S(=O)(=O)c2ccc(Cl)cc2)sc1NC(=O)C1(O)CC1 [Compound 225, 5-(4-chlorophenylsulfonyl)-2-(1-hydroxycyclopropanecarboxamido) thiophene-3-carboxamide]
EC50 [1]: 26.5 nM | EC50 [2]: 36.2 nM | EC50 [3]: 295 nM

NC(=O)c1cc(S(=O)(=O)c2cccc(F)c2)sc1NC(=O)C1(O)CC1 [Compound 227, 5-(3-fluorophenylsulfonyl)-2-(1-hydroxycyclopropanecarboxamido) thiophene-3-carboxamide]
EC50 [1]: 39.3 nM | EC50 [2]: 41.5 nM | EC50 [3]: 472 nM

CC(C)c1ccccc1S(=O)(=O)c1cc(C(N)=O)c(NC(=O)C2(O)CC2)s1 [Compound 228, 2-(1-hydroxycyclopropanecarboxamido)-5-(2-isopropylphenylsulfonyl) thiophene-3-carboxamide]
EC50 [1]: 29 nM | EC50 [2]: 20.5 nM | EC50 [3]: 93 nM

CN(Cc1ccc(F)cc1)S(=O)(=O)c1cc(C(N)=O)c(NC(=O)C2(O)CC2)s1 [Compound 231, 5-(N-(4-fluorobenzyl)-N-methylsulfamoyl)-2-(1-hydroxycyclopropanecarboxamido) thiophene-3-carboxamide]
EC50 [1]: 31.8 nM | EC50 [2]: 26 nM | EC50 [3]: 676 nM

CN(c1ccc(F)cc1)S(=O)(=O)c1cc(C(N)=O)c(NC(=O)C2(O)CC2)s1 [Compound 236, 5-(N-(4-fluorophenyl)-N-methylsulfamoyl)-2-(1-hydroxycyclopropanecarboxamido) thiophene-3-carboxamide]
EC50 [1]: 25.2 nM | EC50 [2]: 46.4 nM | EC50 [3]: 6660 nM

NC(=O)c1cc(S(=O)(=O)N2CCOc3ccccc32)sc1NC(=O)C1(O)CC1 [Compound 242, 5-(2H-benzo[b][1,4]oxazin-4(3H)-ylsulfonyl)-2-(1-hydroxycyclopropanecarboxamido) thiophene-3-carboxamide]
EC50 [1]: 9.6 nM | EC50 [2]: 17.3 nM | EC50 [3]: 163 nM

COc1ccc(S(=O)(=O)c2cc(C(N)=O)c(NC(=O)C3(O)CC3)s2)cc1 [Compound 245, 2-(1-hydroxycyclopropanecarboxamido)-5-(4-methoxyphenylsulfonyl) thiophene-3-carboxamide]
EC50 [1]: 113 nM | EC50 [2]: 60.3 nM | EC50 [3]: 621 nM

COc1ccc(OC)c(S(=O)(=O)c2cc(C(N)=O)c(NC(=O)C3(O)CC3)s2)c1 [Compound 246, 5-(2,5-dimethoxyphenylsulfonyl)-2-(1-hydroxycyclopropanecarboxamido) thiophene-3-carboxamide]
EC50 [1]: 75.1 nM | EC50 [2]: 78.5 nM | EC50 [3]: 627 nM

NC(=O)c1cc(S(=O)(=O)c2c(Cl)cccc2Cl)sc1NC(=O)C1(O)CC1 [Compound 247, 5-(2,6-dichlorophenylsulfonyl)-2-(1-hydroxycyclopropanecarboxamido) thiophene-3-carboxamide]
EC50 [1]: 18.5 nM | EC50 [2]: 10.8 nM | EC50 [3]: 113 nM

CC(O)C(=O)Nc1sc(S(=O)(=O)c2ccc(F)cc2)cc1C(N)=O (centres unmarked) [Compound 248, 5-(4-fluorophenylsulfonyl)-2-(2-hydroxypropanamido) thiophene-3-carboxamide]
EC50 [1]: 70.1 nM | EC50 [2]: 85.8 nM | EC50 [3]: 1390 nM

Cc1cccc(C)c1S(=O)(=O)c1cc(C(N)=O)c(NC(=O)C2(O)CC2)s1 [Compound 251, 5-(2,6-dimethylphenylsulfonyl)-2-(1-hydroxycyclopropanecarboxamido) thiophene-3-carboxamide]
EC50 [1]: 47.2 nM | EC50 [2]: 20.8 nM | EC50 [3]: 1250 nM

CC(C)(CO)C(=O)Nc1sc(S(=O)(=O)c2ccc(F)cc2)cc1C(N)=O [Compound 253, 5-(4-fluorophenylsulfonyl)-2-(3-hydroxy-2,2-dimethylpropanamido) thiophene-3-carboxamide]
EC50 [1]: 50.8 nM | EC50 [2]: 73 nM | EC50 [3]: 3330 nM

NC(=O)c1cc(S(=O)(=O)c2ccc(F)cc2F)sc1NC(=O)C1(O)CC1 [Compound 256, 5-(2,4-difluorophenylsulfonyl)-2-(1-hydroxycyclopropanecarboxamido) thiophene-3-carboxamide]
EC50 [1]: 23.1 nM | EC50 [2]: 26.2 nM | EC50 [3]: 1770 nM

NC(=O)c1cc(S(=O)(=O)c2ccccc2C(F)(F)F)sc1NC(=O)C1(O)CC1 [Compound 257, 2-(1-hydroxycyclopropanecarboxamido)-5-(2-(trifluoromethyl)phenylsulfonyl) thiophene-3-carboxamide]
EC50 [1]: 26.1 nM | EC50 [2]: 16.3 nM | EC50 [3]: 333 nM

NC(=O)c1cc(S(=O)(=O)c2ccc(F)cc2)sc1NC(=O)C1COCCO1 (centres unmarked) [Compound 277, N-(3-carbamoyl-5-(4-fluorophenylsulfonyl)thiophen-2-yl)-1,4-dioxane-2-carboxamide]
EC50 [2]: 389 nM | EC50 [3]: 3330 nM

Cc1cccnc1S(=O)(=O)c1cc(C(N)=O)c(NC(=O)C(C)(C)O)s1 [Compound 278, 2-(2-hydroxy-2-methylpropanamido)-5-(3-methylpyridin-2-ylsulfonyl) thiophene-3-carboxamide]
EC50 [2]: 1400 nM | EC50 ([3]; class symbol): > 1000 nM

COCCOc1cc(F)ccc1S(=O)(=O)c1cc(C(N)=O)c(NC(=O)C(C)(C)O)s1 [Compound 282, 5-(4-fluoro-2-(2-methoxyethoxy)phenylsulfonyl)-2-(2-hydroxy-2-methylpropanamido) thiophene-3-carboxamide]
EC50 [2]: 157 nM | EC50 [3]: 3330 nM

Cn1ccnc1S(=O)(=O)c1cc(C(N)=O)c(NC(=O)C(C)(C)O)s1 [Compound 285, 2-(2-hydroxy-2-methylpropanamido)-5-(1-methyl-1H-imidazol-2-ylsulfonyl) thiophene-3-carboxamide]
EC50 [2]: > 1000 nM | EC50 ([3]; class symbol): > 1000 nM

NC(=O)c1cc(S(=O)(=O)c2ccc(F)cc2)sc1NC(=O)C(O)CO (centres unmarked) [Compound 288, 2-(2,3-dihydroxypropanamido)-5-(4-fluorophenylsulfonyl) thiophene-3-carboxamide]
EC50 [2]: 2360 nM | EC50 ([3]; class symbol): > 1000 nM

CC(=O)OC(C)(C)C(=O)Nc1sc(S(=O)(=O)c2ccccc2C(C)C)cc1C(N)=O [Compound 294, 1-(3-carbamoyl-5-(2-isopropylphenylsulfonyl)thiophen-2-ylamino)-2-methyl-1-oxopropan-2-yl acetate]
EC50 [2]: 228 nM | EC50 [3]: 1330 nM

CC(C)(O)C(=O)Nc1sc(S(=O)(=O)c2cc(F)ccc2O)cc1C(N)=O [Compound 296, 5-(5-fluoro-2-hydroxyphenylsulfonyl)-2-(2-hydroxy-2-methylpropanamido) thiophene-3-carboxamide]
EC50 [2]: 727 nM | EC50 ([3]; class symbol): > 1000 nM

Cc1ccc(S(=O)(=O)c2cc(C(N)=O)c(NC(=O)C(C)(C)O)s2)cn1 [Compound 297, 2-(2-Hydroxy-2-methyl-propionylamino)-5-(6-methyl-pyridine-3-sulfonyl)-thiophene-3-carboxylic acid amide]
EC50 [2]: 367 nM | EC50 [3]: 3330 nM

Cc1cc(S(=O)(=O)c2cc(C(N)=O)c(NC(=O)C(C)(C)O)s2)ccn1 [Compound 299, 2-(2-Hydroxy-2-methyl-propionylamino)-5-(2-methyl-pyridine-4-sulfonyl)-thiophene-3-carboxylic acid amide]
EC50 [2]: 915 nM | EC50 [3]: 3330 nM

COc1ccccc1S(=O)(=O)c1cc(C(N)=O)c(NC(=O)C(C)(C)O)s1 [Compound 301, 2-(2-hydroxy-2-methylpropanamido)-5-(2-methoxyphenylsulfonyl) thiophene-3-carboxamide]
EC50 [2]: 174 nM | EC50 ([3]; class symbol): > 1000 nM

COCCN(C1CC1)S(=O)(=O)c1cc(C(N)=O)c(NC(=O)C(C)(C)O)s1 [Compound 306, 5-(N-cyclopropyl-N-(2-methoxyethyl)sulfamoyl)-2-(2-hydroxy-2-methylpropanamido) thiophene-3-carboxamide]
EC50 [2]: 254 nM | EC50 ([3]; class symbol): > 1000 nM

CC(C)(O)C(=O)Nc1sc(S(=O)(=O)N2CCC(F)(F)CC2)cc1C(N)=O [Compound 308, 5-(4,4-difluoropiperidin-1-ylsulfonyl)-2-(2-hydroxy-2-methylpropanamido) thiophene-3-carboxamide]
EC50 [2]: 234 nM | EC50 [3]: 1030 nM

CC1(C)CN(S(=O)(=O)c2cc(C(N)=O)c(NC(=O)C(C)(C)O)s2)C1 [Compound 309, 5-(3,3-Dimethyl-azetidine-1-sulfonyl)-2-(2-hydroxy-2-methyl-propionylamino)-thiophene-3-carboxylic acid amide]
EC50 [2]: 115 nM | EC50 [3]: 2860 nM
